Values quoted from earlier work in PMC3618595 (Pharmaceutical research, 2013).

Tests used:
[1] = target: T1, hASBT (Homo sapiens, UniProt Q12908); conditions: taurocholate; cited from earlier work
T1 sequence (Q12908 1-348): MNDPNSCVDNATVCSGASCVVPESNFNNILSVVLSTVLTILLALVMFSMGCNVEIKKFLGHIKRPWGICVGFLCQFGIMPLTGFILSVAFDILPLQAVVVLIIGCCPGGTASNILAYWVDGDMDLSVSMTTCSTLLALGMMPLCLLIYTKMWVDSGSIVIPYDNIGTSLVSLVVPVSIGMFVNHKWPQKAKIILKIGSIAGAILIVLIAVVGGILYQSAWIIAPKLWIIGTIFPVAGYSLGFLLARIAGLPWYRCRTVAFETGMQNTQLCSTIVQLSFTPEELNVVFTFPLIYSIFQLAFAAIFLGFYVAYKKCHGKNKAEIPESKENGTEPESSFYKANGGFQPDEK

[2] = system: plasma proteins; conditions: cited from earlier work
[3] = cited from earlier work

| Compound | Km [1] [µM] | Binding to plasma proteins [2] [%] | Octanol/water partition coefficient [3] |
| --- | --- | --- | --- |
| C[C@H](CCC(=O)NCCS(=O)(=O)O)[C@H]1CC[C@H]2[C@@H]3[C@H](O)C[C@@H]4C[C@H](O)CC[C@]4(C)[C@H]3C[C@H](O)[C@]12C [taurocholate] | 4.39 | – | – |
| C[C@H](CCC(=O)O)[C@H]1CC[C@H]2[C@@H]3[C@H](O)C[C@@H]4C[C@H](O)CC[C@]4(C)[C@H]3CC[C@]12C [chenodeoxycholic acid] | – | 96.2 | 23.3 |
